In brackets after ≈: the same amount, converted by molar mass. Where a SMILES comes first, the peptide text is derived from it.
Experiments:
[1] = tested on: M. abscessus clinical isolate MAB13; type: cell-based, M. abscessus subsp. massiliense; settings: 3 days at 37°C
Procedure: (§1) Briefly, serial dilutions of the AMPs were prepared with potassium phosphate buffer (PPB) from the concentration range of 3.125 to 400 μg/ml and then 50 μl of each dilution were added to each 96-well plate. Colonies of the isolate were suspended and then further diluted in Mueller-Hinton broth to obtain a final concentration of 1×10^3 CFU/ml (optimized according to the available AMP stock concentration). Fifty microliters of this inoculum were added to each well of the plates. The plates were incubated for 3 days at 37°C. Plain media and bacterial suspensions without AMPs were used as negative and positive controls. The MIC values were read and recorded. All assays were performed in duplicate and two independent experiments.
(§2) For the in vitro antimicrobial susceptibility, the same protocol as described above was used. The culture plates were further incubated up to 3 days at 37°C. The MIC values were read and recorded.

[2] = tested on: M. abscessus clinical isolate MAB14; assay: In vitro antimicrobial susceptibility of potential AMPs, broth microdilution, 3 days; type: cell-based, M. abscessus subsp. massiliense; settings: 3 days at 37°C
Procedure: as §1, §2

[3] = tested on: M. abscessus clinical isolate MAB16; assay: as above; type: cell-based, M. abscessus subsp. massiliense; settings: 3 days at 37°C
Procedure: as §1, §2

[4] = tested on: M. abscessus clinical isolate MAB15; assay: as above; type: cell-based, M. abscessus subsp. massiliense; settings: 3 days at 37°C
Procedure: as §1, §2

[5] = tested on: M. abscessus clinical isolate MAB12; assay: as above; type: cell-based, M. abscessus subsp. massiliense; settings: 3 days at 37°C
Procedure: as §1, §2

[6] = tested on: clinical isolates of M. abscessus; assay: In vitro susceptibility of potential AMPs, 3 days, summary over isolates; type: cell-based, Mycobacterium abscessus; settings: isolates MAB01 and MAB03
Procedure: as §1, §2

[7] = tested on: human peripheral blood mononuclear cells (PBMCs); assay: PBMC toxicity, trypan blue exclusion assay; type: cell-based; settings: 1 h at 37°C, mean±SD of duplicates, two independent experiments
Procedure: For the toxicity of the potential AMPs to human peripheral blood mononuclear cells (PBMCs), the trypan blue exclusion assay was used. Fresh human PBMCs were prepared from blood samples of healthy volunteers using the Ficoll density gradient technique. The cells were centrifuged at 1,800 rpm for 20 min at 20°C and washed three times with PBS and adjusted with RPMI-1640 medium into 6.25×10^5 cells/ml. Fifty microliters of PBMC suspension and 50 μl of AMP solutions (6.25–400 μg/ml) were added to the 96-well microtiter plates and incubated for 1 h at 37°C. Then, 20 μl of the samples were mixed with 20 μl of 0.4% (w/v) trypan blue solution (0.81% NaCl and 0.06% (w/v) dibasic potassium phosphate) in microtubes and incubated for 3 min at room temperature. The PBMC suspensions treated with PBS were used as negative controls. PBMCs were counted using a dual-chamber hemocytometer under a light microscope. Viable and non-viable cells were counted under a microscope and the percentage of viable cells was calculated using the following formula: % of viable cells = [1.00 –([…] / Number of total cells)] × 100. All assays were performed in duplicate with two independent experiments.

Mab ATCC19977 strain = type: cell-based, Mycobacterium abscessus
Procedure: as §1

[8] = tested on: human red blood cells (RBCs); assay: Hemolytic toxicity test; type: cell-based; settings: for Hemolytic activities (%hemolysis): human RBCs, 1 h at 37°C, mean±SD of duplicates, two independent experiments
Procedure: For the hemolytic toxicity test, red blood cells (RBCs) from fresh blood samples of healthy volunteers were obtained by centrifugation at 1,000 rpm for 5 min. The cells were washed three times with sterile phosphate buffered saline (PBS) and adjusted into 1×10^8 cells/ml. AMPs were diluted with PPB in ranging from 6.25 to 400 μg/ml. Fifty microliters of the RBC suspensions and 50 μl of AMP solutions were added to 1.5 ml sterile microtubes, incubated for 1 h at 37°C and then centrifuged at 1,000 rpm for 5 min. The supernatants were transferred to new 96-well microtiter plates for measurement of the absorbance at 540 nm using a microplate reader. RBC suspensions treated with 2% (v/v) Triton X-100 and PBS solution were used as positive and negative controls. The percentages of hemolysis were calculated using the following formula: % of RBC lysis = 100 × [(Test—PBS) / (Positive control—PBS)]. All assays were performed in duplicate and two independent experiments.

[9] = tested on: M. abscessus clinical isolate MAB06; type: cell-based, M. abscessus subsp. abscessus; settings: 3 days at 37°C
Procedure: as §1, §2

[10] = tested on: M. abscessus clinical isolate MAB02; type: cell-based, M. abscessus subsp. abscessus; settings: 3 days at 37°C
Procedure: as §1, §2

[11] = tested on: sixteen clinical Mab isolates; assay: 24-hour bactericidal activity assay, summary over isolates; type: cell-based, Mycobacterium abscessus; settings: majority of the tested strains (10/16 isolates); equivalent of <50 μg/ml
Procedure: as §1
Potential AMPs from the screening assays were subjected to determine the 24-hour bactericidal activity assays (corresponding to the common time of administration) with sixteen clinical Mab isolates using the protocol as described above. To observe the early antimicrobial activities, the plates were incubated for 24 h at 37°C. The samples from each well were further diluted in 0.05% Tween 80 and inoculated on Mueller-Hinton agar. After incubation for 3 days at 37°C, the colony-forming units (CFUs) were counted and calculated for the percentage of killing using the following formula: % killing = 1 - (CFU sample/ CFU control) ×100.

[12] = tested on: M. abscessus clinical isolate MAB10; assay: In vitro antimicrobial susceptibility of potential AMPs, broth microdilution, 3 days; type: cell-based, M. abscessus subsp. abscessus; settings: 3 days at 37°C
Procedure: as §1, §2

[13] = tested on: M. abscessus clinical isolate MAB08; assay: as above; type: cell-based, M. abscessus subsp. abscessus; settings: 3 days at 37°C
Procedure: as §1, §2

[14] = tested on: M. abscessus clinical isolate MAB07; assay: as above; type: cell-based, M. abscessus subsp. abscessus; settings: 3 days at 37°C
Procedure: as §1, §2

[15] = tested on: M. abscessus clinical isolate MAB11; assay: as above; type: cell-based, M. abscessus subsp. abscessus; settings: 3 days at 37°C
Procedure: as §1, §2

[16] = tested on: M. abscessus clinical isolate MAB05; assay: as above; type: cell-based, M. abscessus subsp. abscessus; settings: 3 days at 37°C
Procedure: as §1, §2

[17] = tested on: M. abscessus clinical isolate MAB09; assay: as above; type: cell-based, M. abscessus subsp. abscessus; settings: 3 days at 37°C
Procedure: as §1, §2

[18] = tested on: M. abscessus clinical isolate MAB03; assay: as above; type: cell-based, M. abscessus subsp. abscessus; settings: 3 days at 37°C
Procedure: as §1, §2

[19] = tested on: M. abscessus clinical isolate MAB04; assay: as above; type: cell-based, M. abscessus subsp. abscessus; settings: 3 days at 37°C
Procedure: as §1, §2

[20] = tested on: M. abscessus clinical isolate MAB01; assay: as above; type: cell-based, M. abscessus subsp. abscessus; settings: 3 days at 37°C
Procedure: as §1, §2

CC(C)C[C@H](NC(=O)[C@H](CCCCN)NC(=O)[C@H](CC(C)C)NC(=O)[C@H](CC(C)C)NC(=O)[C@H](CC(C)C)NC(=O)[C@H](CC(C)C)NC(=O)[C@H](CC(C)C)NC(=O)[C@H](CCCCN)NC(=O)[C@H](CC(C)C)NC(=O)[C@@H](N)CCCCN)C(=O)O [KLK1] (H-KLKLLLLLKL-OH)
Antimicrobial peptides against M. abscessus isolates, MIC value [1]: >400 µg/mL
Antimicrobial peptides against M. abscessus isolates, MIC value [2]: >400 µg/mL
Antimicrobial peptides against M. abscessus isolates, MIC value [3]: >400 µg/mL
Antimicrobial peptides against M. abscessus isolates, MIC value [4]: >400 µg/mL
Antimicrobial peptides against M. abscessus isolates, MIC value [5]: >400 µg/mL
MIC values after 3 days [6]: 20.93 to 41.85 µM
Viable cells of PBMCs (% viable cells) ([7]; 6.25 µg/mL): 102.52±5.04%
Viable cells of PBMCs (% viable cells) ([7]; 12.5 µg/mL): 100.00±2.95%
Viable cells of PBMCs (% viable cells) ([7]; 25 µg/mL): 92.70±4.41%
Viable cells of PBMCs (% viable cells) ([7]; 50 µg/mL): 94.34±2.80%
Viable cells of PBMCs (% viable cells) ([7]; 100 µg/mL): 91.68±8.42%
Viable cells of PBMCs (% viable cells) ([7]; 200 µg/mL): 65.81±4.51%
Viable cells of PBMCs (% viable cells) ([7]; 400 µg/mL): 44.62±7.22%
MIC values (Mab ATCC19977 strain): 400 µg/mL (≈ 335 µM)
Hemolytic activities (%hemolysis) ([8]; 6.25 µg/mL): 0.7±0.50%
Hemolytic activities (%hemolysis) ([8]; 12.5 µg/mL): 4.93±2.49%
Hemolytic activities (%hemolysis) ([8]; 25 µg/mL): 8.27±1.74%
Hemolytic activities (%hemolysis) ([8]; 50 µg/mL): 12.15±0.25%
Hemolytic activities (%hemolysis) ([8]; 100 µg/mL): 15.85±1.49%
Hemolytic activities (%hemolysis) ([8]; 200 µg/mL): 18.13±0.25%
Hemolytic activities (%hemolysis) ([8]; 400 µg/mL): 22.18±1.99%
hemolysis at the MICs level ([8]; at the MICs level, single figure of the abstract): 10.21%
Antimicrobial peptides against M. abscessus isolates, MIC value [9]: >400 µg/mL
Antimicrobial peptides against M. abscessus isolates, MIC value [10]: >400 µg/mL
MIC with ~99% killed within 24 h [11]: < 41.85 µM
Antimicrobial peptides against M. abscessus isolates, MIC value [12]: >400 µg/mL
Antimicrobial peptides against M. abscessus isolates, MIC value [13]: >400 µg/mL
Antimicrobial peptides against M. abscessus isolates, MIC value [14]: >400 µg/mL
Antimicrobial peptides against M. abscessus isolates, MIC value [15]: >400 µg/mL
Antimicrobial peptides against M. abscessus isolates, MIC value [16]: >400 µg/mL
Antimicrobial peptides against M. abscessus isolates, MIC value [17]: >400 µg/mL
Antimicrobial peptides against M. abscessus isolates, MIC value [18]: 50 µg/mL
Antimicrobial peptides against M. abscessus isolates, MIC value [19]: >400 µg/mL
Antimicrobial peptides against M. abscessus isolates, MIC value [20]: 25 µg/mL

From PMC8592419 (PLoS ONE, 2021)
